Source: paper PMC6628235 (Marine Drugs, 2019)

How the values were obtained:
Type in all cases: biochemical
[1] = biological target: T1, butyrylcholinesterase (BuChE) (Equus caballus, UniProt P81908); assay: modified Ellman's assay, positive control, % inhibition at […] (IC50 not determined)
T1 construct: gene BCHE

[2] = biological target: T1, butyrylcholinesterase (BuChE); assay: modified Ellman's assay, % inhibition at […] (IC50 not determined)
[3] = biological target: acetylcholinesterase (AChE) (Electrophorus electricus, UniProt O42275); assay: modified Ellman's microplate assay ([…] inhibition at […])
acetylcholinesterase (AChE), sequence (O42275 24-633): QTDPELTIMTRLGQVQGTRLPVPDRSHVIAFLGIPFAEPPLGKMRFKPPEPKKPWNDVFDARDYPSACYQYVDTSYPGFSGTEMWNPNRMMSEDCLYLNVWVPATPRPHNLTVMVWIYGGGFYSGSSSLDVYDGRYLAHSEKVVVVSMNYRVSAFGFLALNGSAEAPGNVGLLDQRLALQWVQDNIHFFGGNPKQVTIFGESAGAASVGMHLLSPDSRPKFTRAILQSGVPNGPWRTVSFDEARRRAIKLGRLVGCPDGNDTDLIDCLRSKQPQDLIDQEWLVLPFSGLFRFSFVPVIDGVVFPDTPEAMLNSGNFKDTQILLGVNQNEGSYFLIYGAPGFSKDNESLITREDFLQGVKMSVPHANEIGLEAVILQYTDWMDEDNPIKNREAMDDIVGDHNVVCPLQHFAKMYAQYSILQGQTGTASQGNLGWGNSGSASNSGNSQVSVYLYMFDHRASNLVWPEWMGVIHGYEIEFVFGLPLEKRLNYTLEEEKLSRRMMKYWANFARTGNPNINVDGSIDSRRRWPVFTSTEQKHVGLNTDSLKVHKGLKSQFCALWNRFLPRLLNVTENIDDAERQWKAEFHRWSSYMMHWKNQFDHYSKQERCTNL

T1 sequence (P81908 whole entry): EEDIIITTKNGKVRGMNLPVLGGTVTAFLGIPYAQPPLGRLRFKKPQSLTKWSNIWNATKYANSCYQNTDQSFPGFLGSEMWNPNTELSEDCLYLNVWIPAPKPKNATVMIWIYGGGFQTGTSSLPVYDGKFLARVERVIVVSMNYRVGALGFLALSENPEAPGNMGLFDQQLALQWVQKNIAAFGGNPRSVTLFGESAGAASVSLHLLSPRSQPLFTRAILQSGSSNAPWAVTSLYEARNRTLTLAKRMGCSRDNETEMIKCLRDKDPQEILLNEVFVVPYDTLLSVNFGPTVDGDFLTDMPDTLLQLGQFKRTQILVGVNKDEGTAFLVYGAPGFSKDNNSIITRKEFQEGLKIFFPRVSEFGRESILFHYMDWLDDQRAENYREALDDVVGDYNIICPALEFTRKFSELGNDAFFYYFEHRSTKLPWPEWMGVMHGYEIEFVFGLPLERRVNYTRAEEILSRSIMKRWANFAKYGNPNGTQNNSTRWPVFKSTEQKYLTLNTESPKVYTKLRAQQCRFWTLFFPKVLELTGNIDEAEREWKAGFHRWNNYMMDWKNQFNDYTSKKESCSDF

SMILES: COc1ccc2c3c1O[C@H]1C[C@@H](O)C=C[C@@]31CCN(C)C2 [galantamine]
- % inhibition at 6.25 μM [1]: 10.34 ± 0.21

SMILES: CC1=C[C@H](O)[C@]2(CC1=O)C[C@H](O)C(C)(C)O2 [compound 1, (3S, 5R, 10S)-3,10-dihydroxy-2,2,8-trimethyl-1-oxospiro[4.5]dec-8-en-7-one]
- inhibition at 6.25 µM [2]: 30.71 ± 0.21%

SMILES: Cc1cc2nc3[nH]c(=O)[nH]c(=O)c3nc2cc1C [compound 3, lumichrome]
- IC50 [3]: 12.24 ± 0.12 µM
